Active and inactive are the calls of the source.
How the values were obtained:
Tumor necrosis factor = Tumor necrosis factor (Homo sapiens, UniProt P01375); assay: analog potency on TNFa NF-kB signaling – cell-based, revised, SAR follow-up (AID 2337); assay type: functional
[1] = biological target: T1, Nucleotide-binding oligomerization domain-containing protein 1 (Homo sapiens, UniProt Q9Y239); assay: blockers of NOD1 pathway activity – revised, SAR follow-up (AID 2333); assay type: functional
T1 sequence (Q9Y239 whole entry): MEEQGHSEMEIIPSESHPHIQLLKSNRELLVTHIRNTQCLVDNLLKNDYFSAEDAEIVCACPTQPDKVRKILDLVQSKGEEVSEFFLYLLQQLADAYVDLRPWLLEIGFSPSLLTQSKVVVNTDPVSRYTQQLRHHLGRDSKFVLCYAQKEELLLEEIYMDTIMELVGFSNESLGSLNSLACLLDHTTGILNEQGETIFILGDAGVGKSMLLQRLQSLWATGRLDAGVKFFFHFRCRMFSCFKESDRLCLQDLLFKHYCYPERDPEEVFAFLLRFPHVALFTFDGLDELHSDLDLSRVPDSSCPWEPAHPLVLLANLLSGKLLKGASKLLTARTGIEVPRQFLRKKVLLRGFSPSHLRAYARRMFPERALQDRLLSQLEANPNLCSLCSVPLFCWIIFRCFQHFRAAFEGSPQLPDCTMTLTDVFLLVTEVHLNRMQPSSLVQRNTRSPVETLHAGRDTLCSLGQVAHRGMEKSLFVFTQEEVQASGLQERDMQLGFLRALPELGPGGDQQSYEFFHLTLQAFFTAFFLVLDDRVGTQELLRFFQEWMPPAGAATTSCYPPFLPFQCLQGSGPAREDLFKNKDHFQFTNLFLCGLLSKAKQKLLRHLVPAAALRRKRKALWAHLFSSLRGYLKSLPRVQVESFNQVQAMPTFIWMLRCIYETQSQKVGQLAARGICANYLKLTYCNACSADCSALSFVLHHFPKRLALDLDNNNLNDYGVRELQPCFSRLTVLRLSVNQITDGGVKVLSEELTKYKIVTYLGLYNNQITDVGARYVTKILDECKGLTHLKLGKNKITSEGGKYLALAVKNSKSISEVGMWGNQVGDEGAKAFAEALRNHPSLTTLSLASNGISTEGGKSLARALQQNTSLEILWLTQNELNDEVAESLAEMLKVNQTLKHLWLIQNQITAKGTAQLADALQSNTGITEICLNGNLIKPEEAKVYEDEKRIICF

[2] = biological target: Nucleotide-binding oligomerization domain-containing protein 2 (Homo sapiens, UniProt Q9HC29); assay: PubChem AID 2334; assay type: functional
Nucleotide-binding oligomerization domain-containing protein 2, sequence (Q9HC29 whole entry, the tested form may be a part): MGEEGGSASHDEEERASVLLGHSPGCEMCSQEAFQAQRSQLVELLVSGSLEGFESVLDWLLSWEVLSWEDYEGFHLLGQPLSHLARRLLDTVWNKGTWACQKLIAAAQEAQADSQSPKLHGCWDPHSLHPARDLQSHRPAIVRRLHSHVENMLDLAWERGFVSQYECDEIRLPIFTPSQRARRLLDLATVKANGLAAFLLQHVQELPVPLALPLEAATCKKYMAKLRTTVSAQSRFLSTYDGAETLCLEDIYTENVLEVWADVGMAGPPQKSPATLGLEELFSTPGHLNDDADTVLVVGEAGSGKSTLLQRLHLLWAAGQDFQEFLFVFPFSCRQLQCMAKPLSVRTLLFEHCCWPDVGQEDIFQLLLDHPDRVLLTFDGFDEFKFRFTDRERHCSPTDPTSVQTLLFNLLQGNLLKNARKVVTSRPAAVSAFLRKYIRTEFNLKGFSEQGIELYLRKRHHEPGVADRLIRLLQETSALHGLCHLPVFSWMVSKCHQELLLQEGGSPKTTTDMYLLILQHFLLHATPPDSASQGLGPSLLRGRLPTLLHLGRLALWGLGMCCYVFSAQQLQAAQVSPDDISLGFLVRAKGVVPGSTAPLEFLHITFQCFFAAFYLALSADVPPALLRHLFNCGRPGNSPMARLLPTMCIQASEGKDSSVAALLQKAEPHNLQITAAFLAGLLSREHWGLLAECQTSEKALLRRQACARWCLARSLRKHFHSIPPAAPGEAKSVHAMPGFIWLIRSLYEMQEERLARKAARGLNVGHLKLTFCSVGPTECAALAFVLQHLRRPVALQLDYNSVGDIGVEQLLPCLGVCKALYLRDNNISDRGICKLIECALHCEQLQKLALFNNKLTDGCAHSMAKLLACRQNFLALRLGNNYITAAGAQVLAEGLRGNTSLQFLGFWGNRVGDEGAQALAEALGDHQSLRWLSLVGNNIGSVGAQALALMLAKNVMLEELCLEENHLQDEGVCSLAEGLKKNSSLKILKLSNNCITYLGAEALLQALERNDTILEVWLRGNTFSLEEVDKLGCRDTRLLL

HEK293 = assay: cells; details: Homo sapiens;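 note: cells exposed to compound for 14 hours overnight before viability readout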
[3] = biological target: T2, Melanin-concentrating hormone receptor 1 (Homo sapiens, UniProt Q99705); assay: Late-stage fluorescence-based counterscreen for antagonists of the G-protein coupled receptor 7 (GPR7): cell-based dose response assay to identify antagonists of the melanin-concentrating hormone receptor 1 (MCHR1). [Related pubchem assays (depositor defined):AID1861, AID1880, AID1952, AID2148, AID2251, AID2257, AID485339]; assay type: functional
T2 sequence (Q99705 whole entry): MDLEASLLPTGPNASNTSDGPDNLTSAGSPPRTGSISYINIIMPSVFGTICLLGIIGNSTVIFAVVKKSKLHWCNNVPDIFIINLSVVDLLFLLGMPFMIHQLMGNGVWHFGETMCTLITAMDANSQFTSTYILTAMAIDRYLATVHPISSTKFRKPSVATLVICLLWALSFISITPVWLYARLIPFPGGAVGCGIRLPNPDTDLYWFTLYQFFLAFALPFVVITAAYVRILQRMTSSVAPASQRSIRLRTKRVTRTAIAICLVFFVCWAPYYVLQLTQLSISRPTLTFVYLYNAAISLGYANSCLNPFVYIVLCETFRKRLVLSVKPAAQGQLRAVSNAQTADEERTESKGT

Cytochrome P450 2C19 = Cytochrome P450 2C19 (Homo sapiens, UniProt P33261); assay: qHTS Assay for Inhibitors and Substrates of Cytochrome P450 2C19. [Related pubchem assays: 410 ]; assay type: ADME; details: read-out: Potency
Cytochrome P450 2C19, sequence (P33261 whole entry): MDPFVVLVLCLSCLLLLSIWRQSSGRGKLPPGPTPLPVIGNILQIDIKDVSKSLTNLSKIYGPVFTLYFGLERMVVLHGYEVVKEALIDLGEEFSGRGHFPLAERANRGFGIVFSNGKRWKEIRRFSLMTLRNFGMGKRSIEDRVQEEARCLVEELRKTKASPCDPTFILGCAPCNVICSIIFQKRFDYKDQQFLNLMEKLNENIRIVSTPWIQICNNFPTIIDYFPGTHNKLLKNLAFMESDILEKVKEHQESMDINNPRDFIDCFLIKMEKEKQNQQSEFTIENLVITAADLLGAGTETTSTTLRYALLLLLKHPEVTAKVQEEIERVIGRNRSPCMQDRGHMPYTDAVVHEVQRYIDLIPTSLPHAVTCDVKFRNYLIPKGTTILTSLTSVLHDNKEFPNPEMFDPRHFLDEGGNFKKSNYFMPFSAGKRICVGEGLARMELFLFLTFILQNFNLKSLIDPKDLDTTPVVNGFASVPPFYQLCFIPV

Cytochrome P450 2C9 = Cytochrome P450 2C9 (Homo sapiens, UniProt P11712); details: Potency
Cytochrome P450 2C9, sequence (P11712 whole entry): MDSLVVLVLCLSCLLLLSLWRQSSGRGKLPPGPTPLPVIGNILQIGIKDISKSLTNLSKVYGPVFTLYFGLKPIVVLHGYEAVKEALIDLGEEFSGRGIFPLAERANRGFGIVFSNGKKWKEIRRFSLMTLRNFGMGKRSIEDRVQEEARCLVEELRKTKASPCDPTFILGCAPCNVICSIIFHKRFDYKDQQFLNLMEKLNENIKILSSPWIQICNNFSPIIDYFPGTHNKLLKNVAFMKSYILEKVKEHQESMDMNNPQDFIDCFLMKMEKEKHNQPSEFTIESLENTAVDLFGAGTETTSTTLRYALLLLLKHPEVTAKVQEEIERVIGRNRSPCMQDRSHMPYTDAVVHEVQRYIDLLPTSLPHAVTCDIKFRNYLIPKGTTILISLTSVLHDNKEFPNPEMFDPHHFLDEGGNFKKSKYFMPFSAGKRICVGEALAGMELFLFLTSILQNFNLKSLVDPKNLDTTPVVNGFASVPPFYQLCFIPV

Bcl-2-like protein 10 = Bcl-2-like protein 10 (Homo sapiens, UniProt Q9HD36); assay: Bcl-B/TR3 peptide binding disruption – biochemical, fluorescence polarization, FITC-TR3 peptide, selectivity assay for Bfl-1 inhibitor project, primary screen (AID 748);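 note: fluorescence polarization from a fluorescein-labelled TR3 peptide binding purified Bcl-B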
Bcl-2-like protein 10, sequence (Q9HD36 whole entry): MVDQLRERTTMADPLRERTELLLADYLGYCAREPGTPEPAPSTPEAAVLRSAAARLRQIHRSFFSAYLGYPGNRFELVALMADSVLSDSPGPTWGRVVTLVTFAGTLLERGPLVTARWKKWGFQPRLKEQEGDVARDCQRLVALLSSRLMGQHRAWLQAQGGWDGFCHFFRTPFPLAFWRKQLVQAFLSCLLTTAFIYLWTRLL

[4] = biological target: T3, Neuropeptides B/W receptor type 1 (Homo sapiens, UniProt P48145); assay: Fluorescence-based dose response cell-based high throughput screening assay to identify antagonists of the G-protein coupled receptor 7 (GPR7). [Related pubchem assays: 1952 (Screening assay (GPR7 antagonists).), 1880 (Summary AID.)]; assay type: functional
T3 sequence (P48145 whole entry): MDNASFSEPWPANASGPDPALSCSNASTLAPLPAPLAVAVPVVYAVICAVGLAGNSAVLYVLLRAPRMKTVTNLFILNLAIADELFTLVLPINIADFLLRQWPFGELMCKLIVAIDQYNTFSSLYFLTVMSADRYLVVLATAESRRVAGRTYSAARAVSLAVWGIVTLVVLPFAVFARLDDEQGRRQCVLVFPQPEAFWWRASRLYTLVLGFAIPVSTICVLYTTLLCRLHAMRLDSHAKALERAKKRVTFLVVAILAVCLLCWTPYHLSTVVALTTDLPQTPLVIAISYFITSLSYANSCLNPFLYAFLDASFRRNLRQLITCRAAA

[5] = biological target: T2, Melanin-concentrating hormone receptor 1; assay: Fluorescence-based counterscreen for antagonists of the G-protein coupled receptor 7 (GPR7): cell-based high throughput dose response assay to identify antagonists of the melanin-concentrating hormone receptor 1 (MCHR1).; assay type: functional
[6] = biological target: G-protein coupled receptor 35 (Homo sapiens, UniProt Q9HC97); assay: inhibition of zaprinast-stimulated GPR35 beta-arrestin translocation – imaging, U2OS, beta-arrestin-GFP, zaprinast agonist, primary screen (AID 2058); assay type: functional;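 note: antagonist potency meaning inhibition of agonist-induced arrestin redistribution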
G-protein coupled receptor 35, sequence (Q9HC97 whole entry): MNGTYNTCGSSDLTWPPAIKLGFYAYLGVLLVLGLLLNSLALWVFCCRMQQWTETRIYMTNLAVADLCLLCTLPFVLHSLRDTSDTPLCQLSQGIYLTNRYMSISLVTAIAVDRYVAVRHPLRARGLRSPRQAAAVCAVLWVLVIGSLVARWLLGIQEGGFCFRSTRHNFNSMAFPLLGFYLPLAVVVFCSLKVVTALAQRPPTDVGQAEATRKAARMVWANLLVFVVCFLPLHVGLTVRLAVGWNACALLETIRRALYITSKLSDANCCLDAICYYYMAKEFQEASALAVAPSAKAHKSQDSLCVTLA

Tumor necrosis factor, sequence (P01375 whole entry, the tested form may be a part): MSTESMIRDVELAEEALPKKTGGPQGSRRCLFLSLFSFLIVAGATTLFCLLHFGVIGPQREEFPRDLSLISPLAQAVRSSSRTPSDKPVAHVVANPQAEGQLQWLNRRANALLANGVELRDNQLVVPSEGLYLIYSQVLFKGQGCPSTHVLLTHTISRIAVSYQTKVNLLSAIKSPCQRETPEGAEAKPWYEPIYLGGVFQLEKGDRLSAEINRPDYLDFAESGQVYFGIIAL

SMILES: Cc1ccc(O)c(N=Cc2cc(Cc3ccccc3)cc([N+](=O)[O-])c2O)c1
- IC50 (Tumor necrosis factor): > 20 µM (inactive)
- IC50 [1]: > 20 µM (inactive)
- IC50 [2]: > 20 µM (inactive)
- IC50 (HEK293): > 20 µM (inactive)

SMILES: COc1ccc(Oc2c(/C=N/O)cnn(-c3ccc(C(C)C)cc3)c2=O)cc1
- IC50 [3]: > 20 µM (inactive)

SMILES: CCCCCCCCCCCCCCCCOC[C@@H](COCC(F)(F)F)OP(=O)(O)OCO
- AC50 (Cytochrome P450 2C19): 0.002 µM (inconclusive)
- AC50 (Cytochrome P450 2C9): 39.8 µM (inconclusive)

SMILES: Cc1ccc(NC(=O)Nc2cccs2)c(Cl)c1
- IC50 (Bcl-2-like protein 10): > 100 µM (inactive)

SMILES: Cc1ccc(C(=O)N2CCCCC2)cc1S(=O)(=O)N1CCCCCC1
- IC50 [4]: > 43.8 µM (not active)
- IC50 [5]: > 43.8 µM (not active)

SMILES: CN1C=CC2=C(C#N)C(N)C(C#N)(C#N)C(c3ccccc3)C2C1 (stereo unspecified)
- IC50 [6]: 1.01 µM (active)

From ChEMBL document CHEMBL1201862, “PubChem BioAssay data set” (2004)
